This is an account of results in US11458120B2, “Aptamer-drug conjugate and use thereof” (priority 2016, dated 2022).

In data set [1] the test system is A549 lung cancer cell line-injected mice. Briefly: In vivo therapeutic efficacy on A549 lung cancer cell line-injected mice (FDG PET, tumor size). Set-up: species or system nude mouse. The settings on record: i.v. 4 times by 5 day intervals, conjugate 7.5 mg/kg (0.5 mg/kg of MMAE) or MMAE 0.5 mg/kg, 30 days after start of treatment. The method, then: To A549 lung cancer cell line-injected mice, MMAE-(PAB-Cit-Val-MC-S-C6)-T3-AS1411 and MMAE, respectively, were administered by IV injection for 30 days, followed by identifying tumor sizes through PET images. A549 lung cancer cells in a number of 6.1×10^6 cells/ml were injected subcutaneously in the right thigh of each nude mouse. The tumor size was measured in 3 to 4 weeks after the injection and, when a diameter of the tumor reached 0.8 cm, microPET images were captured before treatment. For PET images, F-18 FDG 0.2 mCi was i.p. injected and then the images were captured (Siemens Inveon). After detection of FDG intake in the tumor from the images, MMAE-(PAB-Cit-Val-MC-S-C6)-T3-AS1411 was i.v. injected in an experimental group of 5 mice 4 times by 5 day intervals (7.5 mg/kg, 0.5 mg/kg of MMAE). […]
To A549 lung cancer cell-injected mice, MMAE was administered by IV injection for 30 days, followed by observation of PET images. […] The tumor size was measured in 3 to 4 weeks after the injection and, when a diameter of the tumor reached 0.8 cm, microPET images were captured before treatment. […]
As compared to administration of MMAE alone, it was determined that MMAE-(PAB-Cit-Val-MC-S-C6)-T3-AS1411 inhibits 80% more cancer. After the start of treatment, sizes of tumors were measured in both of horizontal and vertical axes by 5 day intervals. […]

Data set [2] relates to Mv4-11 AML cell line-injected mice. Description: In vivo therapeutic efficacy on Mv4-11 AML cell line-injected mice (FDG PET). Details: species or system nude mouse. The settings on record: Mv4-11 AML tumor, i.v. 4 times by 5 day intervals, conjugate 7.5 mg/kg or MMAE 0.5 mg/kg, 30 days after start of treatment. The protocol:
To Mv4-11 AML cell line-injected mice, citravin-(GLFG-MC-S-C6)-T3-AS1411 and MMAE, respectively, were administered by IV injection for 30 days, followed by identifying tumor sizes through PET images. Mv4-11 AML cells in a number of 6.1×10^6 cells/ml were injected subcutaneously in the right thigh of each nude mouse. The tumor size was measured in 3 to 4 weeks after the injection and, when a diameter of the tumor reached 0.8 cm, microPET images were captured before treatment. For PET images, F-18 FDG 0.2 mCi was i.p. injected and then the images were captured (Siemens Inveon). After detection of FDG intake in the tumor from the images, citravin-(GLFG-MC-S-C6)-T3-AS1411 was i.v. injected in an experimental group of 5 mice 4 times by 5 day intervals (7.5 mg/kg, 0.5 mg/kg of MMAE). After 30 days from the start of treatment, microPET images were captured by the same method as used before treatment (FIG. 13 and FIG. 14).
To Mv4-11 AML cell line-injected mice, MMAE was administered by IV injection for 30 days, followed by observation of PET images. Mv4-11 AML cells in the number of 6.1×10^6 cells/ml were injected subcutaneously in the right thigh of each nude mouse. The tumor size was measured in 3 to 4 weeks after the injection and, when a diameter of the tumor reached 0.8 cm, microPET images were captured before treatment. […]

The conditions of data set [3]: reported by the Weihong Tang group, University of Florida; cited from earlier work.
Data set [4] deals with Mv4-11 cell line. Description: MTT assay to Mv4-11 cell lines. Particulars: Mv4-11 cells, 72 hours incubation, absorbance at 490 nm, FIG. 6. It is filed as cell-based. The method, then: With regard to Mv4-11 cell line as a […] over-expressing a nucleoline protein, cell inhibition efficacy of citravin-(GLFG-MC-S-C6)-T3-AS1411 was verified in vitro by MTT assay. […] Mv4-11 cells (ATCC, IMDM+10% FBS) were seeded on a 96-well plate in a cell number of 2.5 to 5×10^5 cells/well, which was determined by a cell test method to determine an appropriate cell concentration, followed by growing for 1 day. After heating each of citravin-(GLFG-MC-S-C6)-T3-AS1411 and citravin-(GLFG-MC-S-C6)-T3-CRO at 95° C. for 5 minutes, the heated product was gradually cooled at room temperature and directly treated on each well at different concentrations. After incubating the treated A549 cells in 5% CO2 incubator for 72 hours, the incubated product was treated with 20 μL of a reagent solution for MTT assay (Cell Proliferation kit II, Roche) and incubated for different periods of time (10 min, 30 min, 1 hr). Thereafter, the final product was subjected to measurement of absorbance at 490 nm by an ELISA reader (FIG. 6).
(Tetrazolium dyes change colour on reduction, which living cells bring about.)

The subject of data set [5] is A549 cell line. Description: MTT assay to A549 cell lines. It is filed as cell-based. The settings on record: A549 cells, 72 hours incubation, FIG. 17 and FIG. 18. The method, then: With regard to A549 cell line as a lung cancer cell line over-expressing a nucleoline protein, cell inhibition efficacy of MMAE-(PAB-Cit-Val-MC-S-C6)-T3-AS1411 was verified in vitro by MTT assay. […] A549 cells (ATCC, IMDM+10% FBS) were seeded on a 96-well plate in a cell number of 2.5 to 5×10^5 cells/well, which was determined by a cell test method to determine an appropriate cell concentration, followed by growing for 1 day. After heating each of MMAE-(PAB-Cit-Val-MC-S-C6)-T3-AS1411 and MMAE-(PAB-Cit-Val-MC-S-C6)-T3-CRO at 95° C. for 5 minutes, the heated product was gradually cooled at room temperature and directly treated on each well at different concentrations. […] Thereafter, the final product was subjected to measurement of absorbance at 490 nm by an ELISA reader (FIG. 5).
With regard to A549 cell line as a lung cancer cell line over-expressing a nucleoline protein, cell inhibition efficacies of MMAE-(PAB-Cit-Val-MC-S-C6)-T3-AS1411, 12 or 13-(MMAE-PAB-Cit-Val-MC-S-C6)-AS1411 and 12,13-(MMAE-PAB-Cit-Val-MC-S-C6)2-AS1411 were verified in vitro by MTT assay. […] A549 cells (ATCC, IMDM+10% FBS) were seeded on a 96-well plate in a cell number of 2.5 to 5×10^5 cells/well, which was determined by a cell test method to determine an appropriate cell concentration, followed by growing for 1 day. […]

Non-standard residues stand in square brackets, D forms with d. Residues, ends and D or L forms follow the SMILES beside them. *: point of attachment. Dolaproine = CO[C@@H]([C@@H]1CCCN1)[C@@H](C)C(=O)O; Dil = CC[C@H](C)[C@H](NC)[C@@H](CC(=O)O)OC; X1 = C[C@@H](N*)[C@@H](O)c1ccccc1; NMeV = CN[C@H](C(=O)O)C(C)C

In the case of `CC[C@H](C)[C@@H]([C@@H](CC(=O)N1CCC[C@H]1[C@H](OC)[C@@H](C)C(=O)N[C@H](C)[C@@H](O)c1ccccc1)OC)N(C)C(=O)[C@@H](NC(=O)[C@@H](NC)C(C)C)C(C)C` [MMAE, monomethyl auristatin E, reference compound] (H-[NMeV]V[Dil][Dolaproine]-X1), the “FDG intake in the tumor from PET images, after vs before treatment” value in data set [1] and in data set [2] was “FDG intake in the tumor was increased even after treatment” throughout.
In the case of `COc1cccc2c1C(=O)c1c(O)c3c(c(O)c1C2=O)C[C@@](O)(C(=O)CO)C[C@@H]3O[C@H]1C[C@H](N)[C@H](O)[C@H](C)O1` [doxorubicin], in data set [3], the cytotoxic effects is 20%.
Take “citravin-(Gly-Leu-Phe-Gly (SEQ ID NO: 8))-Mal-S-C6-tttggtggtggtggttgtggtggtggtgg [citravin-(GLFG-MC-S-C6)-T3-AS1411]”: the “cell inhibition efficacy (cell viability and cell proliferation) by MTT assay, compared with citravin” value in data set [4] is recorded as “almost the same efficacy as citravin”. Moreover, the “FDG intake in the tumor from PET images, after vs before treatment” value in data set [2] is on record as “a decrease in FDG intake in the tumor is observed”.
“ggtggtggtggu (SEQ ID NO: 4)[5-N-(6-(3-monomethyl auristatin-p-aminobenzoyloxycarbonyl-citrulline-valine-Mal-thiopropanoyl)-aminohexyl)-3-acrylamido]u[5-N-(6-(3-monomethyl auristatin-p-aminobenzoyloxycarbonyl-citrulline-valine-Mal-thiopropanoyl)-aminohexyl)-3-acrylamido]gtggtggtggtgg (DNA GGTGGTGGTGGU; two MMAE-linker conjugates at positions 12,13, chemistry not fully specified) [12,13-(MMAE-PAB-Cit-Val-MC-S-C6)2-AS1411]”: the “cell inhibition efficacy by MTT assay, comparison between MMAE-linker-aptamer conjugates” value in data set [5] was “superior efficacy over of MMAE-(PAB-Cit-Val-MC-S-C6)-T3-AS1411”.
